Assay results from the NIST ThermoML archive (doi:10.1021/je060107n).
Numbers after ± are expanded uncertainties.

Test: mn = molality of the nth substance listed, in mol/kg
Conditions: 101 kPa, Liquid; for viscosity: Capillary tube (Ostwald / Ubbelohde) method; for speed of sound: Linear variable-path acoustic interferometer

O=[N+]([O-])[O-].O=[N+]([O-])[O-].[Mg+2] [magnesium nitrate] + O
Conditions | speed of sound, 273.15 K [m/s] | speed of sound, 278.15 K [m/s] | speed of sound, 283.15 K [m/s] | speed of sound, 288.15 K [m/s] | speed of sound, 293.15 K [m/s] | viscosity, 273.15 K [mPa·s] | viscosity, 278.15 K [mPa·s] | viscosity, 283.15 K [mPa·s] | viscosity, 288.15 K [mPa·s] | viscosity, 293.15 K [mPa·s]
m1 = 0.0145 | 1410.5 ± 1.9 | 1434.8 ± 1.8 | 1449.2 ± 1.8 | 1471.7 ± 1.9 | 1484.3 ± 1.9 | 1.852 ± 0.026 | 1.556 ± 0.022 | 1.339 ± 0.018 | 1.164 ± 0.016 | 1.021 ± 0.014
m1 = 0.0528 | 1415.6 ± 1.8 | 1438.7 ± 1.9 | 1458.5 ± 1.9 | 1477.1 ± 1.9 | 1486.7 ± 1.9 | 1.874 ± 0.026 | 1.58 ± 0.022 | 1.357 ± 0.019 | 1.18 ± 0.016 | 1.038 ± 0.014
m1 = 0.2491 | 1430.4 ± 1.8 | 1451.6 ± 1.9 | 1470.7 ± 1.9 | 1487.6 ± 1.9 | 1501.9 ± 1.9 | 1.958 ± 0.027 | 1.654 ± 0.023 | 1.429 ± 0.02 | 1.244 ± 0.017 | 1.092 ± 0.015
m1 = 0.3405 | 1443 ± 1.8 | 1456.8 ± 1.8 | 1475.6 ± 1.9 | 1491.5 ± 1.9 | 1507 ± 1.9 | – | – | – | – | –
m1 = 0.5931 | – | – | – | – | – | 2.122 ± 0.03 | 1.805 ± 0.025 | 1.564 ± 0.021 | 1.367 ± 0.018 | 1.209 ± 0.016
m1 = 0.6173 | 1469.3 ± 1.9 | 1486.9 ± 1.9 | 1503.7 ± 1.9 | 1517.8 ± 1.9 | 1530.1 ± 1.9 | – | – | – | – | –
m1 = 0.896 | 1498.6 ± 1.9 | 1514.8 ± 1.9 | 1529 ± 1.9 | 1541.2 ± 1.9 | 1553.1 ± 1.9 | – | – | – | – | –
m1 = 0.9898 | 1510.3 ± 1.9 | 1524.8 ± 1.9 | 1538.8 ± 1.9 | 1550.4 ± 1.9 | 1561.5 ± 1.9 | 2.391 ± 0.033 | 2.047 ± 0.028 | 1.775 ± 0.024 | 1.554 ± 0.021 | 1.378 ± 0.018
m1 = 1.262 | 1538 ± 1.9 | 1551.3 ± 1.9 | 1563.1 ± 1.9 | 1573.8 ± 1.9 | 1582.5 ± 1.9 | 2.659 ± 0.036 | 2.268 ± 0.031 | 1.971 ± 0.027 | 1.727 ± 0.023 | 1.53 ± 0.02
m1 = 1.525 | 1566.3 ± 1.9 | 1577.1 ± 1.9 | 1587.6 ± 1.9 | 1596.3 ± 1.9 | 1604.4 ± 1.9 | – | – | – | – | –
m1 = 1.827 | 1600.5 ± 1.9 | 1610.1 ± 1.9 | 1617.9 ± 1.9 | 1625.4 ± 1.9 | 1631.9 ± 1.9 | 3.232 ± 0.044 | 2.765 ± 0.038 | 2.4 ± 0.032 | 2.098 ± 0.028 | 1.859 ± 0.025
m1 = 2.131 | 1632 ± 1.9 | 1639.7 ± 1.9 | 1645.2 ± 1.9 | 1650.6 ± 1.9 | – | 3.587 ± 0.05 | 3.062 ± 0.042 | 2.663 ± 0.036 | 2.33 ± 0.031 | 2.064 ± 0.027
m1 = 2.493 | 1664.6 ± 2 | 1670.1 ± 2 | 1675.2 ± 2 | 1677.8 ± 2 | – | – | – | – | – | –
m1 = 2.584 | – | – | – | – | – | 4.348 ± 0.06 | 3.696 ± 0.051 | 3.207 ± 0.043 | 2.821 ± 0.038 | 2.471 ± 0.033
m1 = 2.793 | 1693.2 ± 2 | 1696.9 ± 2 | 1700.3 ± 2 | 1703.5 ± 2 | – | – | – | – | – | –
m1 = 3.096 | – | – | – | – | – | 5.355 ± 0.074 | 4.538 ± 0.062 | 3.946 ± 0.053 | 3.408 ± 0.046 | 3.002 ± 0.04
m1 = 3.118 | 1721.2 ± 2 | 1723.7 ± 2 | 1725.7 ± 2 | 1727.3 ± 2 | – | – | – | – | – | –
m1 = 3.17 | 1730.6 ± 2 | 1733 ± 2 | 1734.2 ± 2 | 1735.3 ± 2 | – | – | – | – | – | –
m1 = 3.329 | – | – | – | – | – | 5.964 ± 0.081 | 5.056 ± 0.07 | 4.336 ± 0.059 | 3.754 ± 0.051 | 3.308 ± 0.044
m1 = 3.501 | 1752.4 ± 2 | 1753.7 ± 2 | 1754.9 ± 2 | 1755.4 ± 2 | – | – | – | – | – | –
m1 = 3.704 | – | – | – | – | – | 6.966 ± 0.098 | 5.857 ± 0.081 | 5.02 ± 0.069 | 4.345 ± 0.059 | 3.807 ± 0.051
m1 = 3.757 | 1771.9 ± 2 | 1772.4 ± 2.1 | 1771.9 ± 2 | 1771.3 ± 2 | – | – | – | – | – | –
m1 = 4.039 | – | – | – | – | – | 8.21 ± 0.12 | 6.897 ± 0.096 | 5.864 ± 0.081 | 5.051 ± 0.069 | 4.432 ± 0.059
m1 = 4.051 | 1791.3 ± 2 | 1791.4 ± 2 | 1790.4 ± 2 | 1789.6 ± 2 | – | – | – | – | – | –
m1 = 4.285 | 1808.5 ± 2.1 | 1807.3 ± 2.1 | 1806.3 ± 2.1 | 1804.5 ± 2.1 | – | – | – | – | – | –
m1 = 4.403 | 1820.2 ± 2.1 | 1815.4 ± 2.1 | 1813.5 ± 2.1 | 1810.8 ± 2.1 | – | – | – | – | – | –
m1 = 4.728 | – | – | – | – | – | 11.85 ± 0.17 | 9.74 ± 0.14 | 8.233 ± 0.11 | 7.067 ± 0.096 | 6.098 ± 0.082
m1 = 4.883 | – | – | 1847.2 ± 2.1 | 1842.3 ± 2.1 | – | – | – | – | – | –
m1 = 4.907 | – | – | – | – | – | – | – | – | 7.798 ± 0.1 | 6.799 ± 0.092
